Data on 2 compounds can be found in patent publication US20100130621A1, “USE OF HYDROXYTYROSOL AS ANTI-AGING AGENT” (DSM IP ASSETS B.V., priority 2007, published 2010).

In one assay the test system is skeletal muscle. Conditions: oral administration of 1 g per day; cited from earlier work.
For assay [1], the system named is mitochondrial electron transport complex I. In words: Western blot of mitochondrial electron transport complex I protein in adipocytes. Type of assay: cell-based, murine. Particulars: 3T3-L1 adipocytes, 48 hrs. As to the method:
(§1) Murine 3T3-L1 pre-adipocytes (American Type Culture Collection) were cultured in Dulbecco's Modified Eagle's Medium (DMEM) supplemented with 10% fetal bovine serum and allowed to reach confluence. Differentiation of pre-adipocytes was initiated with 1 μM insulin, 0.25 μM dexamethasone and 0.5 mM 3-isobutyl-1-methylxanthine in DMEM, supplemented with 10% fetal bovine serum. After 48 h, the culture medium was replaced with DMEM supplemented with 10% fetal bovine serum and 1 μM insulin. The culture medium was changed every other day with DMEM containing 10% fetal bovine serum. […] After treatment, cells were washed twice with ice-cold PBS, lysed in sample buffer (62.5 mM Tris-Cl pH 6.8, 2% SDS, 5 mM DTT) at room temperature and vortexed. Cell lysates were then boiled for 5 minutes and cleared by centrifugation (13,000 rpm, 10 minutes at 4° C.). Protein concentration was determined using the Bio-Rad DC protein assay. The soluble lysates (10 μg per lane) were subjected to 10% SDS-PAGE, proteins were then transferred to nitrocellulose membranes and blocked with 5% non-fat milk/TBST for 1 h at room temperature. Membranes were incubated with primary antibodies directed against PPAR-γ (1:1000), PGC-1α (1:1000), α-tubulin (1:10 000), Complex I (1:2000), Complex II (1:2000), Complex III (1:2000) and Complex V (1:2000) in 5% milk/TBST at 4° C. overnight. After washing membranes with TBST three times, membranes were incubated with horseradish peroxidase-conjugated secondary antibody for 1 h at room temperature. Western blots were developed using ECL (Roche Manheim, Germany) and quantified by scanning densitometry.

A further assay deals with PGC-1α. The experiment in a line: Western blot analysis of PGC-1α protein level in adipocytes. Particulars: 3T3-L1 adipocytes, 1.0 μM; bell-shape effect from 0.1 to 10.0 μM; mean±SE. The class given is cell-based, murine. The protocol:
as §1, with “Membranes were incubated with primary antibodies directed against PPAR-γ (1:1000), PGC-1α (1:1000), α-tubulin (1:10 000), Complex I (1:2000), Complex II (1:2000), Complex III (1:2000) and Complex V (1:2000) in 5% milk/TBST at 4° C. overnight. After washing membranes with TBST three times, membranes were incubated with horseradish peroxidase-conjugated secondary antibody for 1 h at room temperature.” left out

Structures are written as SMILES.

As to `O=C1O[C@H]([C@@H](O)CO)C(O)=C1O` [Vitamin C], in the assay on skeletal muscle, the “mitochondrial biogenesis in skeletal muscle” value is reported as “decreases mitochondrial biogenesis”.

Turning to `OCCc1ccc(O)c(O)c1` [hydroxytyrosol, 3,4-dihydroxyphenylethanol], the “mitochondrial electron transport complex I protein, vs. control” value in assay [1] (0.1 μM) was found to be 131±16%; in assay [1] (1.0 μM), 163±31%; in assay [1] (10.0 μM), 138±21%. Moreover, the “PGC-1α protein expression (maximum), vs. control” value with PGC-1α is 205±52%.
